The record followed here is patent publication US6620796B1, “Combinatorial library synthesis and pharmaceutically active compounds produced thereby” (Micrologix Biotech Inc., priority 1999, dated 2003).

Like-named read-outs stand apart in the source and are kept apart here.

What all share (format): cell-based
Data set [1] concerns hepatits B virus (HBV). Put plainly: Inhibition of HBV: extracellular virion HBV DNA in 2.2.15 cell cultures. To be noted: for HBV Virion DNA Levels at indicated Drug Concentration: untreated control 114±16 pg/ml. As to the method:
Briefly, confluent 2.2.15 cell cultures infected with an HBV strain were treated with 9 consecutive daily doses of four concentrations of test compound. Extracellular virion HBV DNA levels were followed 24 hours after the last treatment. The level of HBV virion DNA in the 24 control (untreated) cultures in these experiments was 114±16 pg/ml culture medium.

For data set [2], the system named is 2.2.15 cells. Put plainly: Toxicity analysis by neutral red dye uptake in 2.2.15 cells. The method, then: (§1) Cells for toxicity analyses were cultured and treated with four concentrations of the test compound. Uptake of neutral red dye was used to determine the relative level of toxicity 24 hours following the last treatment. The absorbance of internalized dye at 510 nm (A510 ) was used for the quantitative analysis. The percentage of dye uptake in the control (untreated) cell cultures was 100±3.

Test in data set [3]: as above
To be noted: human, neutral red dye uptake. As to the method: as §1

Where [4] appears, read: HBV replication, 2.2.15 cells, 9 consecutive daily doses, virion DNA 24 hours after last treatment, read-out: EC50.
The mark [5] stands for this setting: HBV replication, 2.2.15 cells, 9 consecutive daily doses, virion DNA 24 hours after last treatment, read-out: EC90.

In the case of `Nc1ncnc2c1ncn2[C@H]1C[C@H](O)[C@@H](COP(=O)(S)OCc2ccc3ccccc3c2)O1` (stereo partly drawn) [Nucleoside W198-22], the “HBV Virion DNA Levels at indicated Drug Concentration” value (“HBV Virion DNA Levels” below) in data set [1] (0.01 μM, 2.2.15 cells) is recorded as 129 ± 13 pg/ml culture; in data set [1] (0.1 μM, 2.2.15 cells), 122 ± 13 pg/ml culture; in data set [1] (1.0 μM, 2.2.15 cells) it was 152 ± 11 pg/ml culture; in data set [1] (10 μM, 2.2.15 cells) it was 59 ± 2 pg/ml culture. Besides, the “Selectivity Index (CC50/EC90)” value in data set [1] (HBV replication, 2.2.15 cells) was >9.4. Further, in data set [1] (setting [4]), the EC50 – broadly, the concentration at which the effect is half-maximal – was found to be 10 ± 1.1 µM. The EC90 (in general, the concentration at which the effect reaches the 90% level) in data set [1] (setting [5]) is 32 ± 3.2 µM. Further, the “Neutral Red Dye Uptake at Indicated Drug Concentration” value (“Neutral Red Dye Uptake” below) in data set [2] (10 μM) is 99 ± 2 % of control; in data set [2] (30 μM) it was 101 ± 3 % of control; in data set [2] (100 μM), 102 ± 2 % of control; in data set [2] (300 μM), 103 ± 2 % of control. In addition, in data set [3], the CC50 (commonly the concentration giving 50% cytotoxicity) is > 300 µM.
Turning to `C/C=C(/COP(=O)(S)OC[C@H]1O[C@@H](n2cnc3c(N)ncnc32)C[C@@H]1O)c1ccccc1` (stereo partly drawn) [Nucleoside W198-21], the “HBV Virion DNA Levels” value came to 137 ± 14 pg/ml culture in data set [1] (0.01 μM, 2.2.15 cells); 121 ± 13 pg/ml culture in data set [1] (0.1 μM, 2.2.15 cells); 117 ± 12 pg/ml culture in data set [1] (1.0 μM, 2.2.15 cells); 35 ± 4 pg/ml culture in data set [1] (10 μM, 2.2.15 cells). Moreover, in data set [1] (HBV replication, 2.2.15 cells), the “Selectivity Index (CC50/EC90)” value was >16. The EC50 in data set [1] (setting [4]) was 5.3 ± 0.6 µM. Further, in data set [1] (setting [5]), the EC90 was determined as 19 ± 2.1 µM. Further, the “Neutral Red Dye Uptake” value is on record as 99 ± 3 % of control in data set [2] (10 μM), 99 ± 1 % of control in data set [2] (30 μM), 100 ± 1 % of control in data set [2] (100 μM) and 100 ± 2 % of control in data set [2] (300 μM). Also, the CC50 in data set [3] was > 300 µM.
With `C=C(C)[C@@H]1CC=C(COP(=O)(S)OC[C@H]2O[C@@H](n3cnc4c(N)ncnc43)C[C@@H]2O)CC1` (stereo partly drawn) [Nucleoside W198-24], the “HBV Virion DNA Levels” value in data set [1] (0.01 μM, 2.2.15 cells) was 140 ± 15 pg/ml culture; in data set [1] (0.1 μM, 2.2.15 cells), 133 ± 12 pg/ml culture; in data set [1] (1.0 μM, 2.2.15 cells), 149 ± 25 pg/ml culture; in data set [1] (10 μM, 2.2.15 cells), 62 ± 3 pg/ml culture. In addition, the “Selectivity Index (CC50/EC90)” value in data set [1] (HBV replication, 2.2.15 cells) is given as >7.7. In addition, the EC50 in data set [1] (setting [4]) was found to be 12 ± 1.2 µM. Besides, the EC90 in data set [1] (setting [5]) came to 39 ± 4.1 µM. Besides, the “Neutral Red Dye Uptake” value in data set [2] (10 μM) is listed as 100 ± 1 % of control; in data set [2] (30 μM), 102 ± 2 % of control; in data set [2] (100 μM), 103 ± 1 % of control; in data set [2] (300 μM), 102 ± 1 % of control. Besides, in data set [3], the CC50 is > 300 µM.
Regarding `C=C(C)CC/C=C/COP(=O)(S)OC[C@H]1O[C@@H](n2cnc3c(N)ncnc32)C[C@@H]1O` (stereo partly drawn) [Nucleoside W198-10], the “HBV Virion DNA Levels” value in data set [1] (0.01 μM, 2.2.15 cells) was determined as 127 ± 10 pg/ml culture; in data set [1] (0.1 μM, 2.2.15 cells), 121 ± 10 pg/ml culture; in data set [1] (1.0 μM, 2.2.15 cells), 139 ± 10 pg/ml culture; in data set [1] (10 μM, 2.2.15 cells) it was 46 ± 2 pg/ml culture. In addition, the concentration giving a half-maximal response (EC50) in data set [1] (24 h) is 7.7 ± 0.9 µM. The 90% effect level in data set [1] (24 h) (EC90) was put at 24 ± 0.8 µM. In addition, in data set [1] (HBV replication, 2.2.15 cells), the “Selectivity Index (CC50/EC90)” value is >13. In addition, the “Neutral Red Dye Uptake” value in data set [2] (10 μM) is 100 ± 1 % of control; in data set [2] (30 μM), 102 ± 2 % of control; in data set [2] (100 μM), 99 ± 1 % of control; in data set [2] (300 μM) it was 98 ± 1 % of control. In addition, the half-maximal cytotoxic concentration (CC50) in data set [3] is > 300 µM.
